Test results as given in US11058654B2, “Compositions and methods for the treatment of hemoglobinopathies and thalassemias” (AXCELLA HEALTH INC., priority 2018, dated 2021).
Where two headings read alike, the source gives them in different places.

Key:
[1] = Plasma pharmacokinetics after oral gavage in male Sprague-Dawley rats; type: in vivo; design: AUC(0-t): concentration or dose not given beside the values; details: rat
Description: A pharmacokinetic (PK) analysis was performed on plasma concentrations of various combinations of amino acid compounds administered by oral gavage to male Sprague-Dawley rats. Four animals were dosed with RCitNacQCarLHKVS, a test article comprising ten amino acid components: arginine, citrulline, N-acetylcysteine, glutamine, carnitine, leucine, histidine, lysine, valine, and serine (Table 19). Animals were fasted for 2 hours prior to dose administration. Plasma samples were taken immediately pre-dose and 0.5, 1, 2, 3, 4, and 5 hours post-dose.
Bioanalysis of collected plasma samples for amino acid content was performed at Axcella Health using an LC-MS method (Section 2.1). Bioanalytical data were analyzed using noncompartmental analysis with Phoenix® WinNonLin® (v8.1).
An LC/MS method utilizing HILIC chromatography and high-resolution mass spectrometry was used to quantify amino acids in rat plasma. The samples were prepared by protein precipitation and spiked with stable-labeled amino acid internal standard for each analyte. […] QCs, spiked into rat plasma, were utilized to assess the accuracy of the method.
PK parameters of test article components were determined from individual rat plasma concentration-time data by employing a noncompartmental approach using Phoenix WinNonlin® (Version 8.1) software. Nominal times were used to calculate the toxicokinetic parameters. […] This program analyzed data using the standard methods described by Gibaldi and Perrier (see M. Gibaldi and D. Perrier, Pharmacokinetics, 2nd edition, New York: Marcel-Dekker, Inc.; 1982.).

VCAM-1 = VCAM-1 cell integrated intensity in HLMVEC treated with TNFa; type: cell-based, human; details: 0.5 ng/mL TNFα; amino acids at 20×; 24 hours; in words
From the text: A VEC model was employed to assess the ability of amino acids to influence aspects of vascular dysfunction in SCD. TNFa treatment of healthy donor HLMVEC mimics the SCD disease state and induces expression of adhesion markers ICAM-1 and VCAM-1, and secretion of proinflammatory cytokine IL-6. It is established that levels of ICAM-1, VCAM-1, and IL-6 can contribute to SCD pathology and correlate with the incidence and severity of complications in SCD patients. The VEC model sought to test the ability of amino acids to reduce the TNFa-induced disease phenotype by lowering expression of adhesion markers (ICAM-1 and VCAM-1) and inflammatory cytokines (IL-6) while promoting VEC health and viability.
Primary Human Lung Microvascular Endothelial Cells (HLMVEC; Lonza) were seeded at 6,000 cells per well in Endothelial Cell Growth Basal Medium-2 (Lonza) supplemented with Fetal Bovine Serum (FBS; Lonza), human EGF (Lonza), human VEGF (Lonza), R3-Insulin-like Growth Factor-1 (Lonza), ascorbic acid (Lonza), hydrocortisone (Lonza), human FGF-beta (Lonza), and gentamicin/amphotericin-b (Lonza) in a 96-well plate (Thermo Fisher). The cells were incubated for 45 minutes at room temperature, then incubated overnight at 37° C./5% CO2.
Following overnight incubation, cell were washed once with 150 μL of Dulbecco's phosphate buffered saline (DPBS; Gibco), and then treated with Endothelial Basal Medium MCB-131 (amino acid, glucose, sodium pyruvate, and phenol red free; US Biologicals) containing a defined custom amino acid concentration based on physiological concentrations in blood of patients with SCD (thus recapitulating observed metabolic imbalances such as the depletion of certain essential amino acids including arginine and aspartate and enrichment of certain non-essential amino acids including glutamate and asparagine), dialyzed FBS (Hyclone), human EGF (Lonza), human VEGF (Lonza), R3-Insulin-like Growth Factor-1 (Lonza), ascorbic acid (Lonza), hydrocortisone (Lonza), human FGF-beta (Lonza), and gentamicin/amphotericin-b (Lonza), glucose, 10 mM HEPES, sodium pyruvate, and sodium bicarbonate supplemented with one of the following: • a. PBS (vehicle control), • b. 0.5 ng/mL Tumor Necrosis Factor alpha (TNFα) and PBS, or; • c. 0.5 ng/mL TNFα and amino acid treatments at 20× mean physiological concentrations in plasma based on values published in the Human Metabolome Database (HMDB) in PBS.
After 24 hours of treatment, cells were washed once with 150 μL of DPBS (Gibco), then fixed with 4% paraformaldehyde. […]
Antibody binding was detected by fluorescence microscopy using a high content imager (Molecular Devices). Images were analyzed using MetaXpress 6 software to determine the integrated intensity per cell for each wavelength corresponding to ICAM-1 or VCAM-1.

[2] = tested on: RBCs of healthy whole blood; test: RBC deformability (LORRCA elongation index), ex vivo TBHP oxidation of healthy whole blood; type: cell-based, human; details: healthy donor 2, single amino acid treatments, in words
From the text: Whole blood from healthy African American and/or Hispanic donors was obtained from Research Blood Components, LLC based on the following donor selection criteria: Adult age (between 18 and 50 years), normal BMI (<30), and absence of other confounding clinical conditions. Whole blood from SCD donors were obtained from BioIVT based on the following donor selection criteria: Patients with genotypes HbSS, HbSC, HbS/β^0 and at least 1-2 months gap since last blood transfusion. Whole blood was shipped on ice on the same day as blood draw. Upon receipt, the blood sample was aliquoted and stored in the refrigerator until used for studies.
RBC deformability measurements were conducted with the Laser Optical Rotational Red Cell Analyzer (LORRCA) from RR Mechatronics in a temperature-controlled environment (37° C.). Briefly, an even layer of RBCs suspended in polyvinylpyrrolidone (PVP) is subjected to shear stress gradient (0.3 to 30 Pa) through two concentric cylinders and the resulting changes in RBC shape or deformability are measured by a laser beam diffraction pattern. The captured images of RBC shape in response to increasing shear stress are then analyzed by the LORRCA program to calculate Elongation Index (EI).
Healthy RBCs have higher deformability≥0.5 EI and SCD RBCs have lower deformability or EI values as studied by LORRCA ektacytometry in the field. […] The induced hemolysis model in this disclosure involves use of tert-butyl hydroperoxide (TBHP) to lower EI of RBCs.
The ex vivo hemolysis study disclosed here involves overnight treatment of whole blood with vehicle as a control and specific amino acids followed by rapid oxidation (5 min) with TBHP. Method for oxidation of whole blood with tert-butyl hydroperoxide has been used in prior literature (Diederich L, et al, Front Physiol. 2018 May 11; 9:332). RBC deformability or shape changes are then measured with LORRCA ektacytometry.
Whole blood aliquots stored in the fridge were brought up to room temperature while gently shaking on a rocker at low speed for an hour to ensure gradual and uniform suspension of red blood cells prior to deformability measurements. Vehicle control used in the study was 1× Dulbecco's […]) and amino acids disclosed herein were added (at either final […] or 2.5 mM concentration as indicated) to corresponding vehicle and amino acid treatment conditions. The samples were then incubated overnight at 37° C. Next day, 25 μL of whole blood was taken from each treatment condition and added to 5 mL Elon ISO viscous solution from RR Mechatronics. The sample was inverted 15-20 times to ensure proper mixing of the treated RBCs with the Elon ISO solution followed by loading the sample on LORRCA and capturing RBC deformability or shape measurements over the applied shear gradient. The remaining whole blood treatments were returned to incubator (37° C.) until deformability measurements were completed for all treatments. To the remaining whole blood treatment samples, TBHP solution (5.0-6.0 M in Decane, Sigma) was added at 2.5 mM final concentration from a 100 mM freshly prepared stock and incubated for further 5 min at 37° C. 25 μL of this TBHP-treated sample was immediately removed at the end of the 5 min incubation and added to the Elon ISO solution for RBC deformability measurement after oxidation. Included in the Tables 13-15 are EI measurements at ½ EImax shear stress 1.69 Pa and EImax shear stress 30 Pa from these studies and FIG. 1 captures EI measurements for all shear stress points for the indicated treatment conditions.

TNFa = test: LPS-induced TNFa secretion in primary human PBMC-derived macrophages (ELISA); type: cell-based; details: Donor 2; in words
Description: (§1) Unpurified buffy coats (Research Blood Components) were carefully poured into 50 mL centrifuge tubes and diluted with room temperature Dulbecco's Phosphate Buffered Saline (dPBS) with Calcium and Magnesium (Gibco). Diluted buffy coats were further divided into four total 50 mL centrifuge tubes at 20 mL per tube. Lymphocyte Separation Medium (Corning) was carefully pipetted to the bottom of each centrifuge tube. Mixtures were centrifuged at 850× g for 32 minutes at 20° C. with 0 deceleration and acceleration.
(§2) The PBMC layer was separated from other components after centrifugation and added to new 50 mL centrifuge tube containing 25 mL dPBS. Total volume was brought up to 50 mL with dPBS and centrifuged at 600× g for 10 minutes at 20° C. with acceleration of 9, deceleration of 5. Supernatant was carefully removed from cell pellets. The cell pellets were resuspended using 10 mL dPBS. Total volume was then brought up to 50 mL using dPBS and centrifuged at 450× g for 5 min at 20° C. with acceleration of 9, deceleration of 9. The supernatant removal and cell pellet resuspension was repeated again.
(§3) The supernatant was then carefully removed from cell pellets. Cell pellets were resuspended in 10 mL dPBS without calcium or magnesium and filtered through a 70 uM cell strainer. The total PBMC number was determined using a Cellometer K2 automated cell counter. A total of 5E6 cells were saved for flow cytometric analysis. Remaining cells were centrifuged at 490× g for 5 minutes at 20° C. with acceleration of 9, deceleration of 9.
(§4) CD14+ cells were selected using EasySep™ Human CD14 Positive Selection Kit II ([…] Technologies). Cells were resuspended in cold EasySep™ Buffer ([…] Technologies) at 1×10^8 cells/mL. A total of 100 uL/mL EasySep™ Human CD14 Positive Selection Cocktail II was added to the cell suspension, mixed, and incubated at room temperature for 10 minutes. A total of 100 uL/mL RapidSpheres were added to the mixture and incubated at room temperature for 3 minutes after mixing, then RoboSep buffer was added to bring up the total volume to 10 mL. The mixture in a 15 mL tube was placed in magnet and incubated at room temperature for 3 minutes. Supernatant was discarded and 10 mL fresh EasySep™ buffer was added to 15 mL tube. The addition of RoboSep buffer, mixing, and discarding of supernatant was repeated two more times.
(§5) Negative and positive fractions were centrifuged at 490× g for 5 minutes at 20° C. with acceleration of 9, deceleration of 9, and resuspended in DMEM (Gibco) and 10% Heat Inactivated Fetal Bovine Serum (Atlanta Bio) and Penicillin/Streptomycin. Cells were counted and centrifuged again at […] for 5 minutes at 20° C. with acceleration of 9, deceleration of 9. After centrifugation, cell were resuspended in DMEM (Gibco) and 10% Heat Inactivated Fetal Bovine Serum (Atlanta Bio) and Penicillin/Streptomycin containing 500 U/mL […] and plated at 1-2×10^6 cells/mL on 10 cm tissue culture plates. Cells were kept in 37° C., 5% CO2 in between feedings/harvest.
(§6) Cells were fed every 3-4 days by removing media and unattached cells, centrifuging at 490× g for 5 minutes at 20 C with acceleration of 9, deceleration of 9, and resuspending in fresh DMEM (Gibco) and 10% Heat Inactivated Fetal Bovine Serum (Atlanta Bio) and Penicillin/Streptomycin containing GM-CSF. Resuspended cells were seeded back onto 10 cm tissue culture plates and incubated at 37° C., 5% CO2. Differentiated macrophages were used for subsequent experiments.
(§7) Primary human PMBC derived macrophages were seeded on day 0 at 3.0E4 cells per well in 96-well microplates (ThermoFisher) in Dulbecco's Modified Eagle Medium (DMEM) (Gibco) supplemented with penicillin-streptomycin (Hyclone) and 10% heat inactivated fetal bovine serum (HI-FBS) (Atlanta Bio) and incubated overnight at 37° C., 5% CO2. On day 1, cells were washed once with 150 uL per well DPBS (Gibco) and treated with 75 uL of: • a. […]

IL-6 = test: LPS-induced IL-6 secretion in primary human PBMC-derived macrophages (ELISA); type: cell-based; details: Donor 2; in words
Description: as §1, §2, §3, §4, §5, §6, §7

[3] = plasma, Mean, oral gavage of RCitNacQCarLHKVS, male Sprague-Dawley rats, read-out: AUC0-5 h
[4] = plasma, Mean, oral gavage of RCitNacQCarLHKVS, male Sprague-Dawley rats, read-out: Cmax
[5] = plasma, Mean, oral gavage of RCitNacQCarLHKVS, male Sprague-Dawley rats, read-out: Tmax
[6] = male, Sprague-Dawley, in vivo, po

AUC(0-t) [1, 3] | Cmax [1, 4] | Tmax [1, 5] | Compound | other results
463 µM·h | 126 µM | 1 h | CC(C)[C@H](N)C(=O)O [Valine] | –
1030 µM·h | 285 µM | 2.25 h | N[C@@H](CO)C(=O)O [Serine] | –
– | – | – | C[N+](C)(C)CC(O)CC(=O)[O-] (stereo not shown) [Car, carnitine] | VCAM-1 expression in HLMVEC (VCAM-1): moderate effect; EI over vehicle control, ½ EImax and EImax [2]: higher than the vehicle
1350 µM·h | 337 µM | 1 h | NCCCC[C@H](N)C(=O)O [Lysine] | –
586 µM·h | 170 µM | 0.5 h | CC(C)C[C@H](N)C(=O)O [Leucine] | effect on LPS-induced TNFa secretion (TNFa): increased; effect on LPS-induced IL-6 secretion (IL-6): increased
– | – | – | NC(=O)NCCC[C@H](N)C(=O)O [Cit, citrulline] | VCAM-1 expression in HLMVEC (VCAM-1): moderate effect; EI over vehicle control, ½ EImax and EImax [2]: higher than the vehicle
– | – | – | CC[C@H](C)[C@H](N)C(=O)O [Isoleucine] | effect on LPS-induced TNFa secretion (TNFa): increased
237 µM·h | 83.8 µM | 5 h | C[N+](C)(C)CC(O)CC(=O)[O-] (stereo not shown) [Carnitine] | –
– | – | – | N[C@@H](Cc1c[nH]cn1)C(=O)O [Histidine] | AUC(0-t) [1, 6]: 157 µM·h; Cmax [1, 6]: 41.9 µM; Tmax [1, 6]: 1.25 h

Compound | AUC(0-t) [1, 3] | Cmax [1, 4] | Tmax [1, 5] | other results
NC(=O)NCCC[C@H](N)C(=O)O [Citrulline] | 2090 µM·h | 583 µM | 2.5 h | –
